{
  "source": "patent US11492346B2",
  "about": "“Benzisoxazole sulfonamide derivatives” (Pfizer Inc., priority 2019, dated 2022)",
  "key": {"[1]": {"tested_on": "histone H3K23 acetylation in U2OS cells", "experiment": "Histone H3 Lysine 23 Acetylation Biomarker Assay", "type": "cell-based", "conditions": "Homo sapiens, 24 hours incubation", "experimental": "Compounds were tested for their ability to inhibit acetylation of the histone H3K23 marker in the following assay:\nThe cell line U2OS was seeded at a density of 9,000 cells per well in 96 well optical quality tissue culture plates in RPMI medium and 10% foetal bovine serum, and allowed to adhere for 24 hours under standard culture conditions (37 degree Celsius, 5% CO2). At the end of this period the medium was aspirated. […] After incubation for 24 hours, the cells were fixed with 3.7% formaldehyde in PBS for 20 minutes at room temperature, washed (5×5 minutes) with phosphate buffer saline containing 0.1% Tween 20 and blocked with Odyssey blocking buffer (LI-COR, Lincoln, Nebr.) containing 0.1% TritonX100. Anti-H3K23ac specific antibody (Abcam ab177275) in Odyssey blocking buffer containing 0.1% Tween 20 was added and incubated for 16 hours at 4 degree Celsius. After washing (as above), a secondary antibody labelled with Alexa647 dye (LifeTechnologies) and Hoechst 33342 (1 μg/mL, SigmaAldrich) were added for 1 hour incubation. Plates were washed as previously and read on a PerkinElmer Phenix high content imaging platform. Using a Columbus image analysis pipeline, individual nuclei were located by Hoechst 33342 stain and the acetylation level was calculated from the Alexa647-related intensity in the same area."}, "HBO1-KAT7": {"biological_target": "HBO1-KAT7 (Homo sapiens (Human), UniProt O95251)", "sequence (O95251 other isoform, or with tags, fused parts or gaps)": "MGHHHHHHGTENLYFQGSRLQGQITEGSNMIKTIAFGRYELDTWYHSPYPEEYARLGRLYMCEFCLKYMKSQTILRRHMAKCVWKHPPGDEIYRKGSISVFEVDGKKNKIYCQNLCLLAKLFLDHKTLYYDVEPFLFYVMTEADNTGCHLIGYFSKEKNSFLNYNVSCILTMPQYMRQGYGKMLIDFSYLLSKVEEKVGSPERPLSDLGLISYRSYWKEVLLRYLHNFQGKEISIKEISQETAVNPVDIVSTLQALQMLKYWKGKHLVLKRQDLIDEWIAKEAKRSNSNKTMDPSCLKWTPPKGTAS", "experiment": "biochemical"}, "[2]": {"tested_on": "histone H2A.Z Lysine 7 acetylation in U2OS cells", "experiment": "H2A.Z Lysine 7 Acetylation Biomarker Assay", "type": "cell-based", "conditions": "Homo sapiens, serum free medium, 24 hours incubation", "experimental": "Compounds were tested for their ability to inhibit the histone H2A.Z Lysine 7 acetylation marker in the following assay: The cell line U2OS was seeded at a density of 3,000 cells per well in 384-well optical quality tissue culture plates in RPMI medium supplemented with 10% foetal bovine serum and 10 mM Hepes. The cells were allowed to adhere for 24 hours under standard culture conditions (37 degree Celsius, 5% CO2). At the end of this period the cells were washed with serum free medium. […] 2018, at 30 μM concentration. After incubation for 24 hours, the cells were fixed with 4% formaldehyde in PBS for 15 minutes at room temperature, washed with phosphate buffer saline and blocked with blocking buffer containing 0.2% TritonX100 and 2% BSA. Anti-H2A.ZK7ac specific antibody (Abcam) in blocking buffer was added and incubated overnight at 4 degree Celsius. After washing, a secondary antibody labelled with AlexaFluor 488 dye (ThermoFisher) and Hoechst 33342 (1 μg/mL, Life Technologies) were added for 2 hours incubation at room temperature. Plates were washed and read on a PerkinElmer Opera HCS high content imaging platform. Using a Columbus image analysis pipeline, individual nuclei were located by Hoechst 33342 stain and the acetylation level was calculated from the AlexaFluor 488-related intensity in the same area."}, "MOZ-KAT6A": {"biological_target": "MOZ-KAT6A (Homo sapiens (Human), UniProt Q92794)", "sequence (Q92794 other isoform, or with tags, fused parts or gaps)": "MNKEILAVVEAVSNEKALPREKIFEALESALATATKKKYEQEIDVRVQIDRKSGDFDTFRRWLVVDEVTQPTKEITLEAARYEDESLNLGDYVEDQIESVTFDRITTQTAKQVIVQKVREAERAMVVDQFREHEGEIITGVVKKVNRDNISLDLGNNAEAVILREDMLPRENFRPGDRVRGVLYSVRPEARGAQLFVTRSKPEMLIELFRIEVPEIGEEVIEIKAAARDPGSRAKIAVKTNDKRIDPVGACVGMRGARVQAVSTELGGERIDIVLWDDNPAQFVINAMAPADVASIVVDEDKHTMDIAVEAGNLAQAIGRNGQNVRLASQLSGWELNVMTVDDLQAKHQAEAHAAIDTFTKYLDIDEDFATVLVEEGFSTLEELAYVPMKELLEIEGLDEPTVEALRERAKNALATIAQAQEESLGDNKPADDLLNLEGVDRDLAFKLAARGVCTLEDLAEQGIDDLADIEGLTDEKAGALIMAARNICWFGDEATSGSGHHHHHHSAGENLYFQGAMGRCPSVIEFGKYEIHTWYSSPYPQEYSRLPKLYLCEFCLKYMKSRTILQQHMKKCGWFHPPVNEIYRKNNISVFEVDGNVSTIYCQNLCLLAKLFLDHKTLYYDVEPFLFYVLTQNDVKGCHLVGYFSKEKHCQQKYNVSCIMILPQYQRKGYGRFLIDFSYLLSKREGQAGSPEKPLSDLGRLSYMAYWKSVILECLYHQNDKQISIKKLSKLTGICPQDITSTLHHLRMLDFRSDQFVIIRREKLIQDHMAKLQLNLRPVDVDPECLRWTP", "experiment": "biochemical"}, "KAT6A": {"biological_target": "KAT6A (Homo sapiens (Human), UniProt Q92794)", "experiment": "KAT assay (SAMDI mass spectrometry), KAT6A;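 further: Baculovirus-expressed KAT6A acetylating histone H3 (1-21) peptide (2 µM), 30-60 min at room temperature, % product conversion fitted to Morrison equation for tight-binding competitive inhibitors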", "type": "biochemical", "conditions": "KAT6a Ki at 1 μM AcCoA, 1 μM AcCoA", "description": "(§1) Prepare 10 mM stock solutions in 100% DMSO from solid material • 2. Serial dilute 10 mM, 1 mM or 0.1 mM compound stocks 3-fold in 100% DMSO for 11-point dose response\n(§2) Prepare 1× assay buffer containing 10 mM Tris HCL pH 8.0, 2.5 mM NaCl, 0.5 mM EDTA, 0.005% BSG and 0.02% Tween-20 • 2. Dilute Histone peptide (CPC Scientific) and AcCoA (Sigma) together in assay buffer to 2×. • 3. Dilute KAT enzyme in assay buffer to 2×.\n(§3) Enzyme reaction • 1. Final reaction conditions for each KAT assay in a 20 ul assay reaction volume: • i. KAT5 25 nM, 1 uM AcCoA, 2 uM H4 1-21 peptide, 30-minute reaction • ii. KAT6A 15 nM, 1 uM AcCoA, 2 uM H3 1-21 peptide, 45-minute reaction • iii. KAT6B 25 nM, 1 uM AcCoA, 2 uM H3 1-21 peptide, 60-minute reaction • iv. KAT7 12.5 nM, 1 uM AcCoA, 2 uM H3 1-21 peptide, 45-minute reaction • v. KAT8 15 nM, 1 uM AcCoA, 2 uM H3 1-21 peptide, 45-minute reaction • 2. Add 0.5 ul of diluted compound to the assay plate (384-well V-bottom polypropylene plates) or 0.5 ul of DMSO for control wells. • 3. Add 10 ul of 2× Histone peptide/2×AcCoA mix to the assay plate. • 4. Add 10 ul of 2× enzyme to the assay plate. • 5. Stop the reaction after the indicated time with the addition of 2 ul of 5% formic acid • 6. Each reaction was analyzed using self-assembled monolayer desorption/ionization time-of-flight mass spectrometry (Mrksich, Milan (2008) Mass Spectrometry of Self-Assembled Monolayers: A New Tool for Molecular Surface Science ACS Nano 2008 2 (1), 7-18; SAMDI Tech, Inc. (Chicago, Ill.)). • 7. Area under the curve (AUC) for both substrate and product peaks was determined for KAT5 at M.W. 2561 [Substrate+H]^+ and 2603 [Product+H]^+ with a +/−1 Da tolerance, respectively • 8. Area under the curve (AUC) for both substrate and product peaks was determined for KAT6a, KAT6B, KAT7 and KAT8 at M.W. 2723 [Substrate+H]^+ and 2765 [Product+H]^+ with a +/−1 Da tolerance, respectively. […] Percent conversion to product was calculated by: AUCProduct/(AUCsubstrate+AUCProduct).\n(§4) IC50 values were determined by fitting the % conversion at each inhibitor concentration to the 4-parameter IC50 equation using Pfizer proprietary curve fitting software. • 2. Ki values were determined by fitting the % conversion at each inhibitor concentration to the Morrison equation for tightbinding competitive inhibitors using Pfizer proprietary curve fitting software.\n(§5) KAT enzymes were expressed using a baculovirus expression system and purified at Pfizer, La Jolla. […] Acetyl coenzyme A was purchased from Sigma-Aldrich (St. Louis, Mo.). All other biochemical reagents were purchased from Sigma-Aldrich or ThermoFisher Scientific (Waltham, Mass.).\n(§6) KAT assays were performed at room temperature in assay buffer containing 1 μM AcCoA, 2 μM histone peptide, 10 mM Tris HCL pH 8.0, 2.5 mM NaCl, 0.5 mM EDTA, 0.005% BSG and 0.02% Tween-20. 10 ul of 2× Histone peptide/AcCoA mix was added to a 384-well V-bottom polypropylene assay plate containing 0.5 ul of serially diluted test compound in 100% dimethyl sulfoxide (DMSO). To start the reaction, 10 ul of 2× enzyme solution was added to the assay plate. KAT assays were terminated after 30-60 minutes with the addition of 2 ul of 5% formic acid. All assays used histone H3 (1-21) peptide except for the KAT5 assay which used histone H4 (1-21) peptide. The final enzyme concentration for each KAT was as follows: KAT5, 25 nM; KAT6A, 15 nM; KAT6B, 25 nM; KAT7, 12.5 nM; KAT8 15 nM. Each reaction was analyzed using self-assembled monolayer desorption/ionization time-of-flight mass spectrometry (Mrksich, Milan (2008) Mass Spectrometry of Self-Assembled Monolayers: A New Tool for Molecular Surface Science ACS Nano 2008 2 (1), 7-18; SAMDI Tech, Inc. (Chicago, Ill.)).\n(§7) Area under the curve (AUC) for both substrate and product peaks was determined for KAT5 at M.W. 2561 [Substrate+H]^+ and 2603 [Product+H]^+ with a +/−1 Da tolerance, respectively."}, "KAT5": {"biological_target": "KAT5 (Homo sapiens (Human), UniProt Q92993)", "sequence (Q92993 whole entry)": "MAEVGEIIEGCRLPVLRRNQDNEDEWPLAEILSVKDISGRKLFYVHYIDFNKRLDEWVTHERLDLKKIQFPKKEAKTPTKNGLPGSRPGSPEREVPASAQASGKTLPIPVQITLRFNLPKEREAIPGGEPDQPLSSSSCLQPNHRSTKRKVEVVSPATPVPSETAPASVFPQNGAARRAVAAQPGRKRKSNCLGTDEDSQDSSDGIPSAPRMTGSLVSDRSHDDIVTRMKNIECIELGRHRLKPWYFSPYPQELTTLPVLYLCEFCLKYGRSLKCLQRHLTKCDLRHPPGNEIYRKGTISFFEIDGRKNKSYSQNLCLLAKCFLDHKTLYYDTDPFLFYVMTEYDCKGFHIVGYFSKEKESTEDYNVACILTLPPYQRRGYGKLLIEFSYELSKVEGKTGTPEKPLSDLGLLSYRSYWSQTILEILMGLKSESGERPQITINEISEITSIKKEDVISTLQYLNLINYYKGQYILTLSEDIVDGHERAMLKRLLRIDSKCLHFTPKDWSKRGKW", "experiment": "KAT assay (SAMDI mass spectrometry), KAT5;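 further: Baculovirus-expressed KAT5 acetylating a histone H4 peptide at room temperature, read as percent conversion to product, Ki from a Morrison tight-binding competitive fit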", "type": "biochemical", "conditions": "1 μM AcCoA", "description": "as §1, §2, §3, §4, §5, §6, §7"}, "KAT7": {"biological_target": "KAT7 (Homo sapiens (Human), UniProt O95251)", "sequence (O95251 whole entry)": "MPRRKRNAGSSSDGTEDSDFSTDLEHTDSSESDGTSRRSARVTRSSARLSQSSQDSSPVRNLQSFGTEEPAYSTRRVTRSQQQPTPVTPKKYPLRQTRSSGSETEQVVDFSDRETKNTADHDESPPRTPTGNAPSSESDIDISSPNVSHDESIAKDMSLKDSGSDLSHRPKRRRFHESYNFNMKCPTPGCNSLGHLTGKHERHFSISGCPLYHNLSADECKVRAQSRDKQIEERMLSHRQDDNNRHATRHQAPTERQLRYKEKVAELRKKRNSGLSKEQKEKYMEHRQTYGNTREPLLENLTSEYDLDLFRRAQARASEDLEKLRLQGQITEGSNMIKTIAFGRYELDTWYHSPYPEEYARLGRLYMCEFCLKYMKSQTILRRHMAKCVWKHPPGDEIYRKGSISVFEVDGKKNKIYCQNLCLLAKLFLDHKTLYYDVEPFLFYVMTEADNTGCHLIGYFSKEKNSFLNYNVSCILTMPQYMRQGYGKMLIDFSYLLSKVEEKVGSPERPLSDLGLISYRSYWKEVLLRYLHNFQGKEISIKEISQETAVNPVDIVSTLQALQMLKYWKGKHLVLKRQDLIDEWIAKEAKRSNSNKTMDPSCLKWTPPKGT", "experiment": "KAT assay (SAMDI mass spectrometry), KAT7;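 further: Baculovirus-expressed enzyme acetylating a histone peptide at room temperature, percent conversion from product and substrate peak areas, Ki from a Morrison tight-binding competitive fit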", "type": "biochemical", "conditions": "KAT7 Ki at 1 μM AcCoA", "description": "as §1, §2, §3, §4, §5, §6, §7"}, "KAT8": {"biological_target": "KAT8 (Homo sapiens (Human), UniProt Q9H7Z6)", "experiment": "KAT assay (SAMDI mass spectrometry), KAT8", "type": "biochemical", "conditions": "1 μM AcCoA", "description": "as §1, §2, §3, §4, §5, §6, §7"}, "KAT6B": {"biological_target": "KAT6B (Homo sapiens (Human), UniProt Q8WYB5)", "sequence (Q8WYB5 whole entry)": "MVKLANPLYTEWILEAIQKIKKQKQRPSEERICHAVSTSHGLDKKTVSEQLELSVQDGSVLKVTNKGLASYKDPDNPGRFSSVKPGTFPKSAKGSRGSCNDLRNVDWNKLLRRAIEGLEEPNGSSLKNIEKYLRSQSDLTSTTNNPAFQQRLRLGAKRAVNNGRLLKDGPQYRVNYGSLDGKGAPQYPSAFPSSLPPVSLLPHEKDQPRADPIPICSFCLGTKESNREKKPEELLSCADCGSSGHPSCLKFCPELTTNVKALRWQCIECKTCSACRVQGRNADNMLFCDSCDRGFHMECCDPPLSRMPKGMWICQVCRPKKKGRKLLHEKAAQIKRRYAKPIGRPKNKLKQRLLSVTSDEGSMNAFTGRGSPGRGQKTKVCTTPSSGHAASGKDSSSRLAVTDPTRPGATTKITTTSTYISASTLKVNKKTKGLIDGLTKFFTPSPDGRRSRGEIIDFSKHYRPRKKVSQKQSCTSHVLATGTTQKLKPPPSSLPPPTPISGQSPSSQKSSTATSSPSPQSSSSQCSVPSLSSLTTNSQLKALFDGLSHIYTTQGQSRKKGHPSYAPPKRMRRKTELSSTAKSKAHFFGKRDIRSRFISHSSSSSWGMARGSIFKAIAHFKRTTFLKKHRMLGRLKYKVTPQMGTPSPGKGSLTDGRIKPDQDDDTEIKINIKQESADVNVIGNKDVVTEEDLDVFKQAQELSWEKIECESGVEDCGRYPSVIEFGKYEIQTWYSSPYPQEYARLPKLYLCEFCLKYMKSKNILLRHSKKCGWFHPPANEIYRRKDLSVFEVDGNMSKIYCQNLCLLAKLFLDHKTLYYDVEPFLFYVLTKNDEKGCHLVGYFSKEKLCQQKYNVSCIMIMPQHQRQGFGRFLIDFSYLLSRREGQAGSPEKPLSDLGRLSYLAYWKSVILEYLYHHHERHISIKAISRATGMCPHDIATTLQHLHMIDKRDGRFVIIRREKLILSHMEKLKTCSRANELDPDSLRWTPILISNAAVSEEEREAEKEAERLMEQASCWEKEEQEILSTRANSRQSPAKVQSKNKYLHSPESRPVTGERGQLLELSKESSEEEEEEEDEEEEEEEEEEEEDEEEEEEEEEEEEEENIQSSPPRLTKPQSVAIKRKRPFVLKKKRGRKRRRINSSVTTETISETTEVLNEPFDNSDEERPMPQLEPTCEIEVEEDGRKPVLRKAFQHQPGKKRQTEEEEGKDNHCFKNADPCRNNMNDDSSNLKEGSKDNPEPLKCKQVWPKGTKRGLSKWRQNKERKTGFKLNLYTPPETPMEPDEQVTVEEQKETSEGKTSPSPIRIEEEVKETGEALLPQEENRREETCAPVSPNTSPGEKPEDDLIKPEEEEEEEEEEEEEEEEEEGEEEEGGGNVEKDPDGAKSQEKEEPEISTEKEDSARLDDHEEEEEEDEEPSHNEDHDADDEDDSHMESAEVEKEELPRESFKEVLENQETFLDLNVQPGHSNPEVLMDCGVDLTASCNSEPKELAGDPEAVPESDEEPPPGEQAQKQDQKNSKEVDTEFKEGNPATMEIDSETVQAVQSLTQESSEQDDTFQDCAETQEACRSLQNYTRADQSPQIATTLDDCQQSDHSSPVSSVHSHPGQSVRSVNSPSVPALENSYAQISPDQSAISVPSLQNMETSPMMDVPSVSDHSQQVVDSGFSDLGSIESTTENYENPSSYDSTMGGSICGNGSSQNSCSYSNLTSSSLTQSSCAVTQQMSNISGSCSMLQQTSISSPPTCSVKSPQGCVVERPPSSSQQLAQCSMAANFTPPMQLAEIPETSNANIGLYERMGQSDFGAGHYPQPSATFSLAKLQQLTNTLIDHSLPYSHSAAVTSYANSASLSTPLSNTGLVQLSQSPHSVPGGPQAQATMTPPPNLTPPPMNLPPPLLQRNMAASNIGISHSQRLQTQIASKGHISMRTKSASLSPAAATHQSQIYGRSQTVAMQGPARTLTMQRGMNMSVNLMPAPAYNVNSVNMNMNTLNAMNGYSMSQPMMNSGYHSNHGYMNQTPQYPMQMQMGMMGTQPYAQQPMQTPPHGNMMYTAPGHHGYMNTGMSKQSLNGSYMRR", "experiment": "KAT assay (SAMDI mass spectrometry), KAT6B", "type": "biochemical", "conditions": "1 μM AcCoA", "description": "as §1, §2, §3, §4, §5, §6, §7"}, "TIP60-KAT5": {"biological_target": "TIP60-KAT5 (Homo sapiens (Human), UniProt Q92993)", "sequence (Q92993 other isoform, or with tags, fused parts or gaps)": "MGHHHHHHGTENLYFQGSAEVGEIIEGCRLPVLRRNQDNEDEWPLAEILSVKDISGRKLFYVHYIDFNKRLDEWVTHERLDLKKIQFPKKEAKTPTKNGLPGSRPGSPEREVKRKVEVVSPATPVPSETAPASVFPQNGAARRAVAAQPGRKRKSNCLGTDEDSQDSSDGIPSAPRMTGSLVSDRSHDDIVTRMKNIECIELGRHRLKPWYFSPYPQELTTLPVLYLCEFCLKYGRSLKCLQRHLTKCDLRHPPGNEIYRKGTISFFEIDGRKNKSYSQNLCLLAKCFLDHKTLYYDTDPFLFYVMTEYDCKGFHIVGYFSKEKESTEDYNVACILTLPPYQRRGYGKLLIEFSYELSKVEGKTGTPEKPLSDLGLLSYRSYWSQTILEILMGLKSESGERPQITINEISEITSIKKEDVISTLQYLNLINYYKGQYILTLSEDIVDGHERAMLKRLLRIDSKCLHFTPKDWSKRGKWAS", "experiment": "biochemical"}, "[3]": {"tested_on": "histone H3 Lysine 14 acetylation in U2OS cells", "experiment": "Histone H3 Lysine 14 Acetylation Biomarker Assay", "type": "cell-based", "conditions": "Homo sapiens, serum free medium, 24 hours incubation", "experimental": "Compounds were tested for their ability to inhibit acetylation of the histone H3 Lysine 14 marker in the following assay:\nThe cell line U2OS was seeded at a density of 3,000 cells per well in 384-well optical quality tissue culture plates in RPMI medium supplemented with 10% foetal bovine serum and 10 mM Hepes. The cells were allowed to adhere for 24 hours under standard culture conditions (37 degree Celsius, 5% CO2). At the end of this period the cells were washed with serum free medium. […] After incubation for 24 hours, the cells were fixed with 4% formaldehyde in PBS for 15 minutes at room temperature, washed with phosphate buffer saline and blocked with blocking buffer containing 0.2% TritonX100 and 2% BSA. Anti-H3K14ac specific antibody (Cell Signalling Technologies) in blocking buffer was added and incubated overnight at 4 degree Celsius. After washing, a secondary antibody labelled with AlexaFluor 488 dye (ThermoFisher) and Hoechst 33342 (1 μg/mL, Life Technologies) were added for 2 hours incubation at room temperature. Plates were washed and read on a PerkinElmer Opera HCS high content imaging platform. Using a Columbus image analysis pipeline, individual nuclei were located by Hoechst 33342 stain and the acetylation level was calculated from the AlexaFluor 488-related intensity in the same area."}},
  "data": [
    {"smiles": "COc1cccc(OC)c1S(=O)(=O)Nc1noc2cc(Cn3cccn3)cc(OC)c12", "note": "[Example 98, N-(6-((1H-pyrazol-1-yl)methyl)-4-methoxybenzo[d]isoxazol-3-yl)-2,6-dimethoxybenzenesulfonamide]", "values": [
      {"measurement": "IC50", "setting": "[1]", "result": 0.6, "unit": "nM"}
    ]},
    {"smiles": "COc1cccc(OC)c1S(=O)(=O)Nc1noc2cc(Cn3cc(C)cn3)cc(OC)c12", "note": "[Example 100, 2,6-dimethoxy-N-(4-methoxy-6-((4-methyl-1H-pyrazol-1-yl)methyl)benzo[d]isoxazol-3-yl)benzenesulfonamide]", "values": [
      {"measurement": "IC50", "setting": "HBO1-KAT7", "result": 340, "unit": "nM"},
      {"measurement": "IC50", "setting": "[2]", "result": 15000, "unit": "nM"},
      {"measurement": "IC50", "setting": "[1]", "result": 46, "unit": "nM"},
      {"measurement": "IC50", "setting": "MOZ-KAT6A", "result": 30, "unit": "nM"},
      {"measurement": "Ki", "setting": "KAT6A", "result": 40.3, "unit": "nM"},
      {"measurement": "Ki", "setting": "KAT5", "result": 6220, "unit": "nM"},
      {"measurement": "Ki", "setting": "KAT7", "result": 610, "unit": "nM"},
      {"measurement": "Ki", "setting": "KAT8", "result": 4950, "unit": "nM"},
      {"measurement": "Ki", "setting": "KAT6B", "result": 58.3, "unit": "nM"},
      {"measurement": "IC50", "setting": "TIP60-KAT5", "result": 11200, "unit": "nM"},
      {"measurement": "IC50", "setting": "[3]", "result": 1360, "unit": "nM"}
    ]},
    {"smiles": "COc1cccc(OC)c1S(=O)(=O)Nc1noc2c(-c3cnn(C)c3)cc(C)cc12", "note": "[Example 102, 2,6-dimethoxy-N-(5-methyl-7-(1-methyl-1H-pyrazol-4-yl)benzo[d]isoxazol-3-yl)benzenesulfonamide]", "values": [
      {"measurement": "IC50", "setting": "HBO1-KAT7", "result": 1400, "unit": "nM"},
      {"measurement": "IC50", "setting": "[2]", "result": "> 40000", "unit": "nM"},
      {"measurement": "IC50", "setting": "MOZ-KAT6A", "result": 48800, "unit": "nM"},
      {"measurement": "IC50", "setting": "TIP60-KAT5", "result": "> 125000", "unit": "nM"},
      {"measurement": "IC50", "setting": "[3]", "result": 28300, "unit": "nM"}
    ]}
  ]
}
